{"source": "patent US20130251696A1", "about": "“Antioxidant Composition for Reducing Oxidative Stress Ascribable to the Treatment with Hormonal Contraceptive Drugs” (COR.CON. INTERNATIONAL S.R.L., priority 2010, published 2013)", "origin": "cited, not measured here", "conditions": "principal organs (heart, brain, liver, uterus etc.)"}
{"smiles": "O=C(O[C@@H]1Cc2c(O)cc(O)cc2O[C@@H]1c1cc(O)c(O)c(O)c1)c1cc(O)c(O)c(O)c1", "note": "[EGCG, epigallocatechin gallate]", "values": [{"measurement": "tissue levels as % of blood levels", "value": "8-10%"}]}
